{"source": "patent US20100120703A1", "about": "“COMPOSITIONS AND METHODS FOR TREATING CANCER” (priority 2007, published 2010)", "tested_on": "Sprague Dawley (SD) rats", "test": "Histological analysis and GST-p immunostaining of liver, promotion stage", "type": "in vivo, rat", "source_text": "In the promotion stage experiment, rats in the negative control group received weekly intraperitoneal (i.p.) injection of DMSO for the first 2 weeks and then Corn Oil for the rest of the schedule. Rats in the positive control and SIN-treatment groups both received weekly intraperitoneal (i.p.) injection of the carcinogen DEN for the first 2 weeks and then promoter, Carbon Tetrachloride (CCl4) for the rest of the schedule. Two weeks of fasting were inserted between the initiator carcinogen treatment and the promoter CCl4 treatment. During the fasting period of 2 weeks, rats were fasted for 5 days, followed by a 2 day feeding, and another 5 days of fasting. Water was given ad libitum. Negative and positive control groups received oral treatment of water once a day after fasting. Sinigrin with dosage 15 mg/kg was administered orally to the treatment group daily for 28 weeks after fasting.\nHistological analysis was performed to observe the basic structure of the hepatocytes. Xylene was purchased from Mallinckrodt. Ethanol was purchased from BDH. ABC staining (Anti-rabbit) kit (sc-2018) was purchased from Santa Cruz. Superfrost Microscope slide was purchased from Fisher. 30% H2O2, DAB and Formaldehyde were purchased from Sigma. Anti-GST-pi rabbit polyclonal antibody was purchased from MBL.\nThe liver samples were fixed with 10% formaldehyde and put in cassettes for dehydration and fixed with wax. […]", "data": [{"smiles": "C=CC/C(=N/OS(=O)(=O)[O-])S[C@@H]1OC(CO)[C@@H](O)C(O)C1O.[K+]", "note": "(some centres unmarked) [SIN, sinigrin]", "values": [{"measurement": "hepatocyte structure in liver sections (H&E)", "setting": "15 mg/kg oral daily", "value": "the basic structure of hepatocytes and the central vein were restored"}, {"measurement": "GST-p positive area / whole section area", "setting": "positive control 35%", "value": 5, "unit": "%"}]}]}
